Measured values from patent US7196105B2, “Treatment of human multiple myeloma by curcumin” (Research Development Foundation, priority 2002, dated 2007).

Assays:
[1] = tested on: multiple myeloma cell lines MM.1S, RPMI-8226 and U266; details: 50 μM PS-1145; cited from earlier work
U266 cells [2] = assay: Cytotoxic effect of vincristine with or without curcumin (MTT); type: cell-based, human; details: vincristine 50 μM alone, 24 h
Experimental: The antiproliferative effects of curcumin against different multiple myeloma cell lines were determined by the MTT dye uptake method as described earlier (Manna et al., 1998). Briefly, cells (5000/well) were incubated in triplicate in a 96-well plate in the presence or absence of indicated test samples in a final volume of 0.1 ml for 24 h at 37° C. Thereafter, 0.025 ml of MTT solution (5 mg/ml in PBS) was added to each well. After a 2 h incubation at 37 ° C., 0.1 ml of extraction buffer (20% SDS, 50% dimethylformamide) was added. Incubation was continued for overnight at 37 ° C., and then the OD at 590 nm was measured using a 96-well multiscanner autoreader (Dynatech MR 5000), with extraction buffer as blank. Percent cell viability=(OD of the experiment samples/OD of the control)×100.

U266 cells [3] = assay: Cell viability by trypan blue dye exclusion after NBD peptide treatment; type: cell-based, human; details: NBD peptide 100 μM, 24 h
Experimental: FIG. 8A: U266 cells (2×10^6 cells/ml) were treated with indicated concentrations of NEMO-control or NBD-peptide (100 μM) for the indicated times. Nuclear extracts were then checked for the presence of NF-κB DNA-binding activity by EMSA. FIG. 8B: Untreated or NBD-peptide-treated (100 μM; 12 h) U266 cells were cytospun, and p65 immunocytochemistry was performed as described. Red stain indicates the localization of p65 and blue stain indicates nucleus (magnification 200×). FIG. 8C: U266 cells (2×10^6 cells/ml) were treated with indicated concentrations of NEMO-control or NBD-peptide (100 μM) for the indicated time periods, and cell viability was monitored by the trypan blue dye exclusion method. Percent cell killing was determined as: (number of trypan blue stained cells/total cells)×100.

p65 subunit of NF-κB = assay: Immunocytochemistry for NF-κB p65 localization in multiple myeloma cell lines; type: cell-based, human; details: U266 cells, NBD-peptide 100 μM, 12 h
Experimental: Red stain indicates the localization of p65 and blue stain (Hoechst) indicates nucleus (magnification 200×). […] U266 cells (2×10^6 cells/ml) were treated with indicated concentrations of NEMO-control or NBD-peptide (100 μM) for the indicated times. Nuclear extracts were then checked for the presence of NF-κB DNA-binding activity by EMSA. […] Untreated or NBD-peptide-treated (100 μM; 12 h) U266 cells were cytospun, and p65 immunocytochemistry was performed as described. Red stain indicates the localization of p65 and blue stain indicates nucleus (magnification 200×). […] U266 cells (2×10^6 cells/ml) were treated with indicated concentrations of NEMO-control or NBD-peptide (100 μM) for the indicated time periods, and cell viability was monitored by the trypan blue dye exclusion method. Percent cell killing was determined as: (number of trypan blue stained cells/total cells)×100. […] Stained slides were mounted with mounting medium (Sigma Colo.) and analyzed under an epifluorescence microscope (Labophot-2, Nikon, Tokyo, Japan). […] Cells with nuclear staining of NF-κB p65 or STAT3 were counted separately. One hundred cells were counted for each specimen, and the sample was graded on the basis of a 4-point scale: −, no nuclear positive cells (0%); +, low number of nuclear positive cells (<10%); ++, moderate number of nuclear positive cells (10–50%); +++, high number of nuclear positive cells (>50%).

Molecule: O=C(Nc1cc(Cl)cc2c1[nH]c1cnccc12)c1cccnc1 [PS-1145]
- inhibition of proliferation [1]: less than 50%

Molecule: CC[C@]1(O)C[C@H]2CN(CCc3c([nH]c4ccccc34)[C@@](C(=O)OC)(c3cc4c(cc3OC)N(C=O)[C@H]3[C@@](O)(C(=O)OC)[C@H](OC(C)=O)[C@]5(CC)C=CCN6CC[C@]43[C@@H]65)C2)C1 [vincristine, reference compound]
- killing of U266 cells (U266 cells [2]): minimally effective

Molecule: NH2-DRQIKIWFQNRRMKWKKTALDWSWLQTE-CONH2 (H-DRQIKIWFQNRRMKWKKTALDWSWLQTE-NH2) [NBD peptide, reference compound]
- suppression of cell growth (U266 cells [3]): Approximately 32%
- nuclear pool of the p65 subunit of NF-κB (p65 subunit of NF-κB): decrease in the nuclear pool of the p65 subunit of NF-κB
